Measured values as given in ChEMBL document CHEMBL4732096, “Design, synthesis and evaluation of calix[4]arene-based carbonyl amide derivatives with antitumor activities” (Eur J Med Chem, 2021).

Assays:
[1] = tested on: HepG2; test: Antiproliferative activity against human HepG2 cells assessed as inhibition of cell growth at 10 uM measured after 72 hrs by MTT assay relative to control; format: functional
[2] = tested on: HT-29; test: Antiproliferative activity against human HT-29 cells assessed as inhibition of cell growth at 10 uM measured after 72 hrs by MTT assay relative to control; format: functional
[3] = tested on: MDA-MB-231; test: Antiproliferative activity against human MDA-MB-231 cells assessed as inhibition of cell growth at 10 uM measured after 72 hrs by MTT assay relative to control; format: functional
[4] = tested on: MCF7; test: Antiproliferative activity against human MCF7 cells assessed as inhibition of cell growth at 10 uM measured after 72 hrs by MTT assay relative to control; format: functional
[5] = tested on: A549; test: Antiproliferative activity against human A549 cells assessed as inhibition of cell growth at 10 uM measured after 72 hrs by MTT assay relative to control; format: functional
[6] = Cytotoxicity against HUVEC cells assessed as inhibition of cell growth at 10 uM measured after 72 hrs by MTT assay; format: cell-based; conditions: human
[7] = tested on: A549; test: Antiproliferative activity against human A549 cells assessed as inhibition of cell growth measured after 72 hrs by MTT assay; format: functional, cell-based; conditions: A549, 72 h
[8] = tested on: MDA-MB-231; test: Antiproliferative activity against human MDA-MB-231 cells assessed as inhibition of cell growth measured after 72 hrs by MTT assay; format: functional, cell-based; conditions: MDA-MB-231, 72 h

Compound | inhibition at 10 µM [1] [%] | inhibition at 10 µM [2] [%] | inhibition at 10 µM [3] [%] | inhibition at 10 µM [4] [%] | inhibition at 10 µM [5] [%] | inhibition at 72 h, 10 µM [6] [%] | IC50 [7] [µM] | IC50 [8] [µM]
CC(C)(C)c1cc2c(O)c(c1)Cc1cc(C(C)(C)C)cc(c1OC/C=C/C(=O)NCCCO)Cc1cc(C(C)(C)C)cc(c1O)Cc1cc(C(C)(C)C)cc(c1OC/C=C/C(=O)NCCCO)C2 | 9.5 | 36.1 | 61.5 | 48.2 | 63.3 | 38.8 | 3.59 | 5.2
CC(C)(C)c1cc2c(O)c(c1)Cc1cc(C(C)(C)C)cc(c1OCCCC(=O)NCCCCCO)Cc1cc(C(C)(C)C)cc(c1O)Cc1cc(C(C)(C)C)cc(c1OCCCC(=O)NCCCCCO)C2 | 25 | 33.1 | 34.4 | < 0 | 50.5 | 5.8 | 7.64 | 9.15
CCC(Oc1c2cc(C(C)(C)C)cc1Cc1cc(C(C)(C)C)cc(c1O)Cc1cc(C(C)(C)C)cc(c1OC(CC)C(=O)NCCCCCO)Cc1cc(C(C)(C)C)cc(c1O)C2)C(=O)NCCCCCO (stereo not given) | 9.3 | 26.3 | 63.7 | < 0 | 52.7 | < 0 | 3.78 | 1.36
CC(Oc1c2cc(C(C)(C)C)cc1Cc1cc(C(C)(C)C)cc(c1O)Cc1cc(C(C)(C)C)cc(c1OC(C)C(=O)N(CCO)CCO)Cc1cc(C(C)(C)C)cc(c1O)C2)C(=O)N(CCO)CCO (stereo not given) | 93.8 | 65.7 | 91.3 | 96.2 | 91.2 | 57.2 | 3.75 | 1.63
CCC(Oc1c2cc(C(C)(C)C)cc1Cc1cc(C(C)(C)C)cc(c1O)Cc1cc(C(C)(C)C)cc(c1OC(CC)C(=O)NCCO)Cc1cc(C(C)(C)C)cc(c1O)C2)C(=O)NCCO (stereo not given) | 26.1 | 32.1 | 79.6 | < 0 | 68.7 | 34.3 | 2.22 | 0.92
CC(C)(C)c1cc2c(O)c(c1)Cc1cc(C(C)(C)C)cc(c1OCCCCCC(=O)NCCCO)Cc1cc(C(C)(C)C)cc(c1O)Cc1cc(C(C)(C)C)cc(c1OCCCCCC(=O)NCCCO)C2 | 9.3 | 17.9 | 30.1 | < 0 | 56.5 | < 0 | > 100 | 42.8
CC(C)(C)c1cc2c(O)c(c1)Cc1cc(C(C)(C)C)cc(c1OCCCCCC(=O)N(CCO)CCO)Cc1cc(C(C)(C)C)cc(c1O)Cc1cc(C(C)(C)C)cc(c1OCCCCCC(=O)N(CCO)CCO)C2 | 17.3 | 22.2 | 34.5 | 1.44 | 46.8 | < 0 | > 100 | > 100
CC(C)(C)c1cc2c(O)c(c1)Cc1cc(C(C)(C)C)cc(c1OCCCC(=O)N(CCO)CCO)Cc1cc(C(C)(C)C)cc(c1O)Cc1cc(C(C)(C)C)cc(c1OCCCC(=O)N(CCO)CCO)C2 | 62.8 | 61.5 | 80 | 60.1 | 88.1 | < 0 | 3.81 | 5.81
CC(C)(C)c1cc2c(O)c(c1)Cc1cc(C(C)(C)C)cc(c1OCCCCCC(=O)NCCCCCO)Cc1cc(C(C)(C)C)cc(c1O)Cc1cc(C(C)(C)C)cc(c1OCCCCCC(=O)NCCCCCO)C2 | 21.9 | 21.2 | 31.2 | < 0 | 46.1 | < 0 | > 100 | 97.6
CC(C)(C)c1cc2c(O)c(c1)Cc1cc(C(C)(C)C)cc(c1OCCCC(=O)NCCCO)Cc1cc(C(C)(C)C)cc(c1O)Cc1cc(C(C)(C)C)cc(c1OCCCC(=O)NCCCO)C2 | 24.4 | 35.3 | 29.5 | < 0 | 56.4 | < 0 | 10.3 | 17.9
CC(C)(C)c1cc2c(O)c(c1)Cc1cc(C(C)(C)C)cc(c1OCC(=O)NCCO)Cc1cc(C(C)(C)C)cc(c1O)Cc1cc(C(C)(C)C)cc(c1OCC(=O)NCCO)C2 | 89.9 | 66.2 | 90.5 | 92.2 | 92.3 | 19.6 | 3.84 | 4.53
CC(C)(C)c1cc2c(O)c(c1)Cc1cc(C(C)(C)C)cc(c1OC/C=C/C(=O)NCCO)Cc1cc(C(C)(C)C)cc(c1O)Cc1cc(C(C)(C)C)cc(c1OC/C=C/C(=O)NCCO)C2 | 19.8 | 27.8 | 35 | 38 | 63.5 | 8.9 | 6.29 | 5.46
CC(C)(C)c1cc2c(O)c(c1)Cc1cc(C(C)(C)C)cc(c1OCCCC(=O)NCCO)Cc1cc(C(C)(C)C)cc(c1O)Cc1cc(C(C)(C)C)cc(c1OCCCC(=O)NCCO)C2 | 28.7 | 40.1 | 25.8 | 16.2 | 54.4 | 57 | 13.7 | 11.7
CC(C)(C)c1cc2c(O)c(c1)Cc1cc(C(C)(C)C)cc(c1OC/C=C/C(=O)NCCCCCO)Cc1cc(C(C)(C)C)cc(c1O)Cc1cc(C(C)(C)C)cc(c1OC/C=C/C(=O)NCCCCCO)C2 | 11.8 | 23.9 | 39.5 | < 0 | 37.6 | 23.8 | > 100 | 94.3
CC(C)(C)c1cc2c(O)c(c1)Cc1cc(C(C)(C)C)cc(c1OC/C=C/C(=O)N(CCO)CCO)Cc1cc(C(C)(C)C)cc(c1O)Cc1cc(C(C)(C)C)cc(c1OC/C=C/C(=O)N(CCO)CCO)C2 | 41 | 39.8 | 58.8 | 80.2 | 82 | < 0 | 7.04 | 6.77
CC(Oc1c2cc(C(C)(C)C)cc1Cc1cc(C(C)(C)C)cc(c1O)Cc1cc(C(C)(C)C)cc(c1OC(C)C(=O)NCCCCCO)Cc1cc(C(C)(C)C)cc(c1O)C2)C(=O)NCCCCCO (stereo not given) | 19.8 | 49.6 | 89.3 | < 0 | 86.8 | 31.8 | 2.98 | 3.26
CCC(Oc1c2cc(C(C)(C)C)cc1Cc1cc(C(C)(C)C)cc(c1O)Cc1cc(C(C)(C)C)cc(c1OC(CC)C(=O)NCCCO)Cc1cc(C(C)(C)C)cc(c1O)C2)C(=O)NCCCO (stereo not given) | 20.3 | 41.5 | 80.1 | < 0 | 80.2 | < 0 | 0.96 | 0.85
CC(Oc1c2cc(C(C)(C)C)cc1Cc1cc(C(C)(C)C)cc(c1O)Cc1cc(C(C)(C)C)cc(c1OC(C)C(=O)NCCO)Cc1cc(C(C)(C)C)cc(c1O)C2)C(=O)NCCO (stereo not given) | 67.9 | 47.3 | 89.2 | 76.8 | 91.8 | 35.7 | 2.5 | 1.18
CC(C)(C)c1cc2c(O)c(c1)Cc1cc(C(C)(C)C)cc(c1OCCCCCC(=O)NCCO)Cc1cc(C(C)(C)C)cc(c1O)Cc1cc(C(C)(C)C)cc(c1OCCCCCC(=O)NCCO)C2 | 22.6 | 17.3 | 34.3 | < 0 | 61.6 | < 0 | > 100 | 13
CC(Oc1c2cc(C(C)(C)C)cc1Cc1cc(C(C)(C)C)cc(c1O)Cc1cc(C(C)(C)C)cc(c1OC(C)C(=O)NCCCO)Cc1cc(C(C)(C)C)cc(c1O)C2)C(=O)NCCCO (stereo not given) | 69 | 58.4 | 90.1 | 82.5 | 91.2 | 48.2 | 1.76 | 1.31
